US20090075902A1, “INHIBITING THE SIGNS OF AGING BY INHIBITING NF-KAPPA B ACTIVATION” (priority 2007, published 2009)

What was measured:
Ercc1^−/Δ mice [1] = assay: Third series: double blinded twin study, 8K-NBD versus negative control 8K-mNBD; assay type: in vivo, mouse
Method: FIG. 12. Treatment schedule for third series of experiments; treatment with 8K-NBD or negative control 8k-mNBD.
In a third series of experiments, a different treatment regimen was used (FIG. 12) in which treatment with 8K-NBD or a negative control peptide, 8K-mNBD (having a mutated sequence, […] (SEQ ID NO:7)) was initiated earlier than the above regimens at approximately 5 weeks (8K-NBD or 8K-mNBD, 10 mg/kg) administered intraperitoneally three times per week). This was a double blinded twin study designed to eliminate genetic and environmental variables.
FIG. 13 presents a table showing the phenotypic changes associated with aging in mice treated with 8k-NBD or negative control 8k-mNBD. The overall aging score was improved by 30 percent in 8K-NBD versus 8K-mNBD-treated mice, indicating a significant delay in the onset of age-related symptoms corresponding to over a decade in human life.
FIG. 15A-D presents a comparison of levels of hepatocellular senescence, as measured by staining for p16 protein, in young and senescent wild-type mice as well as Ercc1^−/Δ mice treated with either 8K-NBD or negative control 8K-mNBD according to the regimen of FIG. 12 at the age of 18 weeks.

Ercc^−/Δ mouse = assay: Delayed onset of frailty in a mouse treated with Compound A; assay type: in vivo; conditions: 5 MG/KG of Compound A, n=1; oil control n=3
Method: Delayed onset of frailty in an Ercc^−/Δ mouse treated with 5 MG/KG of Compound A

Ercc1^−/Δ mice [2] = assay: Second series: 8K-NBD in an older symptomatic mouse, liver and skeletal muscle histopathology; assay type: in vivo
Method: FIG. 10. Exposure paradigm for pilot study to determine the impact of 8K-NBD on histopathologic changes in progeroid Ercc1^−/Δ mice. 8K-NBD was dissolved in 5% DMSO in PBS and injected i.p.
In a second series of experiments, an older Ercc1^−/Δ mouse, which already had progeroid symptoms, was chronically exposed to 8K-NBD then euthanized at 20 wk of age to determine if 8K-NBD affected histopathologic changes associated with aging (FIG. 10). Liver and skeletal muscle (SKM) were dissected, fixed, sectioned and stained. Tissues were compared to age-matched untreated Ercc1^−/Δ. The liver of Ercc1^−/Δ mice display large polyploid nuclei (FIG. 11A, 10×) characteristic of senescent hepatocytes (Gupta, 2000). […] This is consistent with previous reports that in mouse models of numerous inflammatory myopathies, persistent NF-κB activity is associated with necrotic and regenerative changes (Monici et al., 2003).

Ercc1^−/Δ mice [3] = assay: Pilot study: chronic 8K-NBD treatment, onset and severity of progeroid symptoms; assay type: in vivo, mouse
Method: FIG. 6. Exposure paradigm for pilot study to determine the impact of 8K-NBD on quality of life in progeroid Ercc1^−/Δ mice. 8K-NBD was dissolved in 5% DMSO in PBS and injected intraperitoneally. A littermate Ercc1^−/Δ mouse was treated with an equal volume of vehicle only (PBS). The study was concluded at 19 wks when the mouse treated with vehicle only became profoundly ataxic and cachectic, requiring euthanization.
Studies were performed to determine if inhibition of NF-κB activation ameliorates accelerated aging in Ercc1^−/Δ mice. An Ercc1^−/Δ mouse was chronically treated with 8K-NBD peptide as described in FIG. 6. The age at onset of numerous progeroid symptoms were recorded (Table II). Ataxia and priapism, both caused by neurodegeneration (Rolig and McKinnon, 2000), were delayed by 3 wks and 1.5 wks respectively in the mouse treated with 8K-NBD.
Motor strength and coordination were measured weekly in the mice by testing their ability to cross a balance beam (FIG. 9A) and to remain suspended from a wire (FIG. 9B).

mice = conditions: cited from earlier work
NF-κB activation = conditions: (Wen 2006); cited from earlier work
[4] = 8K-NBD 10 mg/kg i.p. chronically, versus sibling treated with vehicle only
[5] = 8K-NBD versus vehicle-treated mouse

KKKKKKKKGGTALDASALQTE (SEQ ID NO:7) [8K-mNBD, reference compound]
Degree of osteoporotic changes (micro-CT of vertebra) (Ercc1^−/Δ mice [1]; at 17 weeks of age, compared with 8K-NBD-treated sibling and wild-type littermate): appears greatest
Hepatocellular senescence, p16 protein staining pattern (Ercc1^−/Δ mice [1]; at the age of 18 weeks): more closely resembles the pattern in senescent wild-type hepatocytes

Cl.O=C1Nc2nc(-c3c(O)cccc3OCC3CC3)cc([C@@H]3CCCNC3)c2CO1 [Compound A]
Ataxia (onset) (Ercc^−/Δ mouse): 19.3
Dystonia (onset) (Ercc^−/Δ mouse): 13.7
Kyphosis (onset) (Ercc^−/Δ mouse): 14.3
Trembling (onset) (Ercc^−/Δ mouse): 12.7
Wasting (onset) (Ercc^−/Δ mouse): 19.7

KKKKKKKK-GG-TALDWSWLQTE (SEQ ID NO:2) (KKKKKKKKGGTALDWSWLQTE) [8K-NBD]
Improvement of overall aging score (Ercc1^−/Δ mice [1]; 8K-NBD versus 8K-mNBD, 10 mg/kg i.p. three times per week from approximately 5 weeks): 30%
Hepatocellular senescence, p16 protein staining pattern (Ercc1^−/Δ mice [1]; at the age of 18 weeks): more closely resembles that of a young, healthy mouse
Neurodegeneration, GFAP staining pattern (Ercc1^−/Δ mice [1]; at the age of 18 weeks, relative to 8K-mNBD-treated animal): more closely resembles that of the young wild-type mouse
Skeletal muscle (SKM) pathology (Ercc1^−/Δ mice [2]; at 20 wk of age, untreated Ercc1^−/Δ SKM showed necrosis): devoid of pathologic changes
Hepatocyte cytoplasm to nuclear ratio (Ercc1^−/Δ mice [2]; liver at 20 wk of age, versus age-matched untreated Ercc1^−/Δ): much higher
Hepatic architecture (Ercc1^−/Δ mice [2]; liver at 20 wk of age, suggestive of liver regeneration): effaced
Delay of onset of ataxia (Ercc1^−/Δ mice [3]; [4]): 3 wks
Delay of onset of priapism (Ercc1^−/Δ mice [3]; [4]): 1.5 wks
Body weight maintenance (Ercc1^−/Δ mice [3]; 8K-NBD versus untreated and vehicle-treated mice): maintained weight longer
Ambulation and general appearance (Ercc1^−/Δ mice [3]; [5]): improved
Severity of dystonia, trembling and kyphosis (Ercc1^−/Δ mice [3]; [5]): significantly reduced
Delay in onset of symptoms (cachexia, loss of muscle mass and vision) (Ercc1^−/Δ mice [3]; 8K-NBD versus vehicle-treated sibling): ≥ 3 wk
Motor strength and coordination (balance beam, suspension from a wire) (Ercc1^−/Δ mice [3]; tested weekly, versus untreated mice (n=7)): tended to perform better
Onset of cachexia, loss of muscle mass and vision (Ercc1^−/Δ mice [3]; within the 19 wk period of the study, vehicle mouse showed them by 16 wks of age): did not arise

TALDWSWLQTE; SEQ ID NO:1 [NBD peptide]
Toxicity on systemic administration (mice): not toxic

COc1c(Cl)cc2c([nH]c3cnccc32)c1NC(=O)c1cccnc1C [ML120B, (N-6-chloro-7-methoxy-9H-β-carbolin-8-yl)-2-methylnicotinamide]
IC50 (NF-κB activation): 60 nM
